Experimental data from PMC6364417, “Kinase inhibitor library screening identifies synergistic drug combinations effective in sensitive and resistant melanoma cells” (Journal of Experimental & Clinical Cancer Research : CR, 2019).

Experiments:
Assay in all cases: Kinase inhibitor library screening, PrestoBlue cell viability, 1 or 10 μM, 72 h
[1] = test system: A375-GP cells (Dabrafenib-resistant); conditions: A375 GP
[2] = test system: 501Mel-GP cells (Dabrafenib-resistant); conditions: 501Mel GP
[3] = test system: IGR37-XP cells (Vemurafenib-resistant); conditions: IGR37 XP
[4] = test system: IGR37-GP cells (Dabrafenib-resistant); conditions: IGR37 GP
A375 cells (parental) = conditions: A375 Parental
[5] = test system: A375-XP cells (Vemurafenib-resistant); conditions: A375 XP
IGR37 cells (parental) = conditions: IGR37 Parental
501Mel cells (parental) = conditions: 501Mel Parental
Method in brief: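 Kinase inhibitors added at two fixed concentrations; 72 h exposure; PrestoBlue readout; % viability vs untreated; n ≥ 2 per line.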

[6] = test system: 501Mel-XP cells (Vemurafenib-resistant); conditions: 501Mel XP

| Structure (SMILES) | cell viability (kinase inhibitor library screening) ([1]; 1μΜ, 72 h) | cell viability (kinase inhibitor library screening) ([1]; 10μΜ, 72 h) | cell viability (kinase inhibitor library screening) ([2]; 1μΜ, 72 h) | cell viability (kinase inhibitor library screening) ([2]; 10μΜ, 72 h) | cell viability (kinase inhibitor library screening) ([3]; 1μΜ, 72 h) | cell viability (kinase inhibitor library screening) ([3]; 10μΜ, 72 h) | cell viability (kinase inhibitor library screening) ([4]; 1μΜ, 72 h) | cell viability (kinase inhibitor library screening) ([4]; 10μΜ, 72 h) | cell viability (kinase inhibitor library screening) (A375 cells (parental); 10μΜ, 72 h) | cell viability (kinase inhibitor library screening) (A375 cells (parental); 1μΜ, 72 h) | cell viability (kinase inhibitor library screening) ([5]; 1μΜ, 72 h) | cell viability (kinase inhibitor library screening) ([5]; 10μΜ, 72 h) | cell viability (kinase inhibitor library screening) (IGR37 cells (parental); 1μΜ, 72 h) | cell viability (kinase inhibitor library screening) (IGR37 cells (parental); 10μΜ, 72 h) | cell viability (kinase inhibitor library screening) (501Mel cells (parental); 1μΜ, 72 h) | cell viability (kinase inhibitor library screening) (501Mel cells (parental); 10μΜ, 72 h) | cell viability (kinase inhibitor library screening) ([6]; 1μΜ, 72 h) | cell viability (kinase inhibitor library screening) ([6]; 10μΜ, 72 h) | other results |
| --- | --- | --- | --- | --- | --- | --- | --- | --- | --- | --- | --- | --- | --- | --- | --- | --- | --- | --- | --- |
| O=C(NOCC1CC1)c1ccc(F)c(F)c1Nc1ccc(I)cc1Cl [CI-1040 (PD184352)] | – | – | – | – | – | – | – | – | – | – | – | – | – | – | – | – | – | – | cell viability, A375 GP, 1μΜ ([1]; 1μΜ, 72 h, in %): 35.2; cell viability, A375 GP, 10μΜ ([1]; 10μΜ, 72 h, in %): 16.8; cell viability, 501Mel GP, 1μΜ ([2]; 1μΜ, 72 h, in %): 98.8; cell viability, 501Mel GP, 10μΜ ([2]; 10μΜ, 72 h, in %): 56.0; cell viability, IGR37 XP, 10μΜ ([3]; 10μΜ, 72 h): 26.4%; cell viability, IGR37 XP, 1μΜ ([3]; 1μΜ, 72 h, in %): 81.9; cell viability, IGR37 GP, 10μΜ ([4]; 10μΜ, 72 h): 55.9%; cell viability, IGR37 GP, 1μΜ ([4]; 1μΜ, 72 h, in %): 84.8; cell viability, A375 Parental, 1μΜ (A375 cells (parental); 1μΜ, 72 h, in %): 22.5; cell viability, A375 Parental, 10μΜ (A375 cells (parental); 10μΜ, 72 h, in %): 21.5; cell viability, A375 XP, 1μΜ ([5]; 1μΜ, 72 h, in %): 44.6; cell viability, A375 XP, 10μΜ ([5]; 10μΜ, 72 h, in %): 12.9; cell viability, IGR37 Parental, 1μΜ (IGR37 cells (parental); 1μΜ, 72 h, in %): 43.0; cell viability, IGR37 Parental, 10μΜ (IGR37 cells (parental); 10μΜ, 72 h, in %): 35.8; cell viability, 501Mel Parental, 1μΜ (501Mel cells (parental); 1μΜ, 72 h, in %): 64.1; cell viability, 501Mel Parental, 10μΜ (501Mel cells (parental); 10μΜ, 72 h, in %): 50.2; cell viability, 501Mel XP, 1μΜ ([6]; 1μΜ, 72 h, in %): 81.0; cell viability, 501Mel XP, 10μΜ ([6]; 10μΜ, 72 h, in %): 46.4 |
| CCc1cnn2c(NCc3ccc[n+]([O-])c3)cc(N3CCCC[C@H]3CCO)nc12 [Dinaciclib (SCH727965)] | 10.0% | 6.1% | 0.636% | 0.422% | 3.1% | 2.6% | 4.4% | 2.3% | 10.7% | 10.8% | 11.5% | 8.1% | 4.4% | 2.8% | 1.5% | 1.3% | 0.85% | 0.249% | – |
| Cc1cccc(-c2[nH]c(C(C)(C)C)nc2-c2ccc3nccnc3c2)n1 [SB 525334] | – | – | – | – | – | – | – | – | – | – | – | – | – | – | – | – | – | – | cell viability (kinase inhibitor library screening) ([1]; 1μΜ, in %): 114.6; cell viability (kinase inhibitor library screening) ([1]; 10μΜ, in %): 93.3; cell viability (kinase inhibitor library screening) ([2]; 1μΜ, in %): 110.1; cell viability (kinase inhibitor library screening) ([2]; 10μΜ, in %): 89.8; cell viability (kinase inhibitor library screening) ([3]; 1μΜ, in %): 91.6; cell viability (kinase inhibitor library screening) ([3]; 10μΜ, in %): 60.0; cell viability (kinase inhibitor library screening) ([4]; 1μΜ, in %): 99.0; cell viability (kinase inhibitor library screening) ([4]; 10μΜ, in %): 73.8; cell viability (kinase inhibitor library screening) (A375 cells (parental); 1μΜ, in %): 112.1; cell viability (kinase inhibitor library screening) (A375 cells (parental); 10μΜ, in %): 110.1; cell viability (kinase inhibitor library screening) ([5]; 1μΜ, in %): 109.3; cell viability (kinase inhibitor library screening) ([5]; 10μΜ, in %): 103.4; cell viability (kinase inhibitor library screening) (IGR37 cells (parental); 1μΜ, in %): 104.1; cell viability (kinase inhibitor library screening) (IGR37 cells (parental); 10μΜ, in %): 104.6; cell viability (kinase inhibitor library screening) (501Mel cells (parental); 1μΜ, in %): 98.2; cell viability (kinase inhibitor library screening) (501Mel cells (parental); 10μΜ, in %): 90.3; cell viability (kinase inhibitor library screening) ([6]; 1μΜ, in %): 100.5; cell viability (kinase inhibitor library screening) ([6]; 10μΜ, in %): 78.5 |
| CN(C)c1ccc(-c2nc3ncc(Cl)c(N4CCN(CC(=O)Nc5nccs5)CC4)c3[nH]2)cc1 [CCT129202] | 104.8% | 45.0% | 99.5% | 41.1% | 96.6% | 40.5% | 88.1% | 76.6% | 45.9% | – | 105.5% | 49.9% | 95.8% | 78.6% | 93.7% | 52.8% | 85.2% | 16.7% | – |
| CCN1CCN(C(=O)Cc2ccc(Nc3ncc(F)c(Nc4ccc(C(=O)Nc5ccccc5Cl)cc4)n3)cc2)CC1 [Aurora A Inhibitor I] | 90.9% | 42.7% | 99.5% | 29.4% | 92.1% | 2.4% | 90.4% | 5.3% | 48.5% | 96.9% | 95.8% | 37.0% | 94.5% | 4.6% | 105.7% | 41.4% | 75.4% | 4.3% | – |
| CC(=O)NCC(=O)N1[C@@H]2CC[C@H]1c1ccc(Nc3ncc(C(F)(F)F)c(NC4CCC4)n3)cc12 [PF-03814735] | 35.1% | 3.7% | 89.2% | 8.3% | 69.3% | 2.0% | 91.2% | 10.4% | 8.5% | 32.3% | 40.9% | 12.4% | 88.9% | 37.6% | 82.8% | 24.0% | 72.2% | 3.8% | – |
| FC(F)(F)c1ccc(Nc2nc3ccc(Oc4ccnc(-c5ncc(C(F)(F)F)[nH]5)c4)cc3[nH]2)cc1 [Raf265 derivative] | – | – | – | – | – | – | – | – | – | – | – | – | – | – | – | – | – | – | cell viability (kinase inhibitor library screening) ([1]; 1μΜ, in %): 97.7; cell viability (kinase inhibitor library screening) ([1]; 10μΜ, in %): 60.2; cell viability (kinase inhibitor library screening) ([2]; 10μΜ, in %): 88.7; cell viability (kinase inhibitor library screening) ([3]; 1μΜ, in %): 106.8; cell viability (kinase inhibitor library screening) ([3]; 10μΜ, in %): 69.4; cell viability (kinase inhibitor library screening) ([4]; 1μΜ, in %): 94.6; cell viability (kinase inhibitor library screening) ([4]; 10μΜ, in %): 87.0; cell viability (kinase inhibitor library screening) (A375 cells (parental); 1μΜ, in %): 104.6; cell viability (kinase inhibitor library screening) (A375 cells (parental); 10μΜ, in %): 74.8; cell viability (kinase inhibitor library screening) ([5]; 10μΜ, in %): 66.1; cell viability (kinase inhibitor library screening) (IGR37 cells (parental); 1μΜ, in %): 104.0; cell viability (kinase inhibitor library screening) (IGR37 cells (parental); 10μΜ, in %): 102.6; cell viability (kinase inhibitor library screening) (501Mel cells (parental); 10μΜ, in %): 91.6; cell viability (kinase inhibitor library screening) ([6]; 1μΜ, in %): 116.2; cell viability (kinase inhibitor library screening) ([6]; 10μΜ, in %): 77.9 |
| CCOc1ccn(-c2ccc(F)cc2)c(=O)c1C(=O)Nc1ccc(Oc2ccnc(N)c2Cl)c(F)c1 [BMS 777607] | – | 45.4% | – | 53.2% | 91.2% | 46.6% | 87.2% | 82.2% | 42.4% | 99.9% | – | 66.5% | 97.6% | 81.6% | 88.2% | 68.4% | 72.2% | 37.4% | – |
